Assay [1] relates to rat model of chronic kidney disease. As to conditions: cited from earlier work.
Assay [2] deals with CYP11B2 (Homo sapiens, UniProt P19099). As to conditions: patients with primary aldosteronism, cited from earlier work.
Assay [3] addresses T1, human CYP11B2 (Homo sapiens, UniProt P19099).
T1 construct: expressed in transfected cells
T1 sequence (P19099 25-503): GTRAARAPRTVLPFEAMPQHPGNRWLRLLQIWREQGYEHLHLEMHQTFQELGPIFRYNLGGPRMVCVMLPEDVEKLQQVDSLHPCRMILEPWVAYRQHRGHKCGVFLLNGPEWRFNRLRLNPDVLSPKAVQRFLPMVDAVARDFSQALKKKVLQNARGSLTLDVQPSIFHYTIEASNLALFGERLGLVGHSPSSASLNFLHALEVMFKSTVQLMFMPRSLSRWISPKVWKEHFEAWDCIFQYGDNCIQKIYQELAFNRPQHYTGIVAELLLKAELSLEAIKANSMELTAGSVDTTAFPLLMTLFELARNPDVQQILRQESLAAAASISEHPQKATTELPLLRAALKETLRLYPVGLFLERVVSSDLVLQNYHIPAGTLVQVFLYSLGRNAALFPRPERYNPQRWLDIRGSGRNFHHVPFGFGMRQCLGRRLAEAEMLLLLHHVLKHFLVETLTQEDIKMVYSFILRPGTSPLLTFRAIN
Description: G-402 cellular enzyme assay, human CYP11B2 (aldosterone release, HTRF). It counts as cell-based. The note with it: G-402 cells expressing human CYP11B2; 1 μM Deoxycorticosterone. An outline of the steps:
(§1)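 G-402 cells stably expressing human CYP11B2 or CYP11B1, in DMEM/F12 with 2.5% charcoal-treated FCS, were incubated 16 h with compound plus 1 μM deoxycorticosterone (CYP11B2) or 1 μM deoxycortisol (CYP11B1). Aldosterone or cortisol in the supernatant measured by HTRF; EC50 from a 4-parameter MMF fit.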

Assay [4] addresses T2, human CYP11B1 (Homo sapiens, UniProt P15538).
T2 construct: expressed in transfected cells
T2 sequence (P15538 25-503): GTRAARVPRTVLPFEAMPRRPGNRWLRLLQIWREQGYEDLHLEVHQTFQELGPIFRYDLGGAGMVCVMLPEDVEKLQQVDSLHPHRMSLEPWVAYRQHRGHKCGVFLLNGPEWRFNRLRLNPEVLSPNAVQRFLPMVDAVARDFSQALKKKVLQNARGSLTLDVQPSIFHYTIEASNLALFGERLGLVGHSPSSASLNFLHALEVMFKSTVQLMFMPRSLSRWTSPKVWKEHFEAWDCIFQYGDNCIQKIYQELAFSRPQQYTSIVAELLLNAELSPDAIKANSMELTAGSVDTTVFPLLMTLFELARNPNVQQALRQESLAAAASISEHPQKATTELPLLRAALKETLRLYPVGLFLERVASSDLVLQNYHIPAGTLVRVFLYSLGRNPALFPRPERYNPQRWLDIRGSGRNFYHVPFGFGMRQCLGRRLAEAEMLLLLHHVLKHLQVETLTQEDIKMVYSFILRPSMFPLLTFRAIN
Description: G-402 cellular enzyme assay, human CYP11B1 (cortisol release, HTRF). It counts as cell-based. The note with it: G-402 cells expressing human CYP11B1; 1 μM Deoxycortisol. An outline of the steps: as §1
(In general: In TR-FRET formats the signal depends on donor and acceptor labels being close together.)

Results on 29 compounds are retold here after patent publication US9260408B2, “Dihydroquinoline-2-one derivatives” (Hoffmann-La Roche Inc., priority 2011, dated 2016).

Each structure is given as a SMILES string.

Take `CC(=O)S[C@@H]1CC2=CC(=O)CC[C@]2(C)[C@H]2CC[C@@]3(C)[C@@H](CC[C@@]34CCC(=O)O4)[C@H]12` [spironolactone]: the plasma aldosterone entry in assay [1] (FAD286: 4 weeks of treatment, spironolactone: 4 and 8 weeks of treatment) was “increased”. In addition, the “renal effects (albuminuria, azotemia, renovascular hypertrophy, glomerular injury, PAI-1 and osteopontin mRNA, tubulointerstitial fibrosis)” value in assay [1] (angiotensin II and high salt treatment) was “prevented these renal effects”. Moreover, the “angiotensin II and salt-stimulated PAI-1 mRNA expression in the aorta and the heart” value in assay [1] (rat, in vivo) is on record as “enhanced”.

Turning to `N#Cc1ccc([C@H]2CCc3cncn32)c(F)c1` [LCI699], the circulating aldosterone levels result in assay [2] (oral) is “significantly lower”. Also, in assay [2], the blood pressure result was “mildly decreased”, the hypokalemia entry is on record as “corrected” and the “selectivity (effects on the glucocorticoid axis)” value is recorded as “poor selectivity”.

With `CC(NC(=O)c1ncccc1Cl)c1cncc(-c2ccc3c(c2)CCC(=O)N3C)c1` (single isomer, unassigned) [Example 230, 3-Chloro-pyridine-2-carboxylic acid {(R or S)-1-[5-(1-methyl-2-oxo-1,2,3,4-tetrahydro-quinolin-6-yl)-pyridin-3-yl]-ethyl}-amide], the EC50 in assay [3] came out at 0.001 µM; in assay [4] it was 0.007 µM.

With `Cc1cc(F)cc(C)c1C(=O)NCc1cncc(-c2ccc3c(c2)CCC(=O)N3C)c1` [Example 93], the EC50 came to 0.023 µM in assay [3] and 0.613 µM in assay [4].

Consider `CCC(=O)N1CC[C@H](Oc2cncc(-c3cc4c(cc3F)N(C)C(=O)CC4)c2)C1` [Example 122], for which the EC50 was found to be 0.009 µM in assay [3] and 0.535 µM in assay [4].

Turning to `O=C1CCc2cc(-c3cncc(CNC(=O)c4ncccc4Cl)c3)cc(Cl)c2N1` [Example 204, 3-Chloro-pyridine-2-carboxylic acid [5-(8-chloro-2-oxo-1,2,3,4-tetrahydro-quinolin-6-yl)-pyridin-3-ylmethyl]-amide], the results for the EC50 in assay [3] and in assay [4] were 0.02 µM and 2.24 µM, respectively.

For `Cc1noc(C)c1S(=O)(=O)NCc1cncc(-c2ccc3c(c2)CCC(=O)N3C)c1` [Example 154, 3,5-Dimethyl-isoxazole-4-sulfonic acid [5-(1-methyl-2-oxo-1,2,3,4-tetrahydro-quinolin-6-yl)-pyridin-3-ylmethyl]-amide], the EC50 in assay [3] came to 0.114 µM; in assay [4] it was 1.43 µM.

In the case of `CCS(=O)(=O)NC(C)c1cncc(-c2cc3c(cc2F)N(C)C(=O)CC3)c1` (single isomer, unassigned) [Example 190, Ethanesulfonic acid {(R or S)-1-[5-(7-fluoro-1-methyl-2-oxo-1,2,3,4-tetrahydro-quinolin-6-yl)-pyridin-3-yl]-ethyl}-amide], the EC50 was found to be 0.007 µM in assay [3] and 0.442 µM in assay [4].

For `Cc1c(-c2ccc3c(c2)CCC(=O)N3C)cncc1C(C)NC(=O)c1ncccc1Cl` (single isomer, unassigned) [Example 241, 3-Chloro-pyridine-2-carboxylic acid {(R or S)-1-[4-methyl-5-(1-methyl-2-oxo-1,2,3,4-tetrahydro-quinolin-6-yl)-pyridin-3-yl]-ethyl}-amide], the values for the 50% effective concentration (EC50) in assay [3] and in assay [4] were 0.007 µM and 0.251 µM, respectively.

Regarding `CN1C(=O)CCc2cc(-c3cncc(CNC(=O)c4cnoc4C4CC4)c3)ccc21` [Example 107], the EC50 is 0.002 µM in assay [3] and 0.044 µM in assay [4].

Take `Cc1noc(C)c1C(=O)NC(C)(C)c1cncc(-c2ccc3c(c2)CCC(=O)N3C)c1` [Example 139]: the EC50 in assay [3] stood at 0.018 µM; in assay [4] it was 0.455 µM.

On to `CCS(=O)(=O)NCc1cncc(-c2cc(Cl)c3c(c2)CCC(=O)N3)c1` [Example 203, Ethanesulfonic acid [5-(8-chloro-2-oxo-1,2,3,4-tetrahydro-quinolin-6-yl)-pyridin-3-ylmethyl]-amide], for which the EC50 in assay [3] is 0.083 µM; in assay [4] it was 4.96 µM.

As for `CN1C(=O)CCc2cc(-c3cncc(N4CCCC4=O)c3)ccc21` [Example 14], the results for the EC50 in assay [3] and in assay [4] were 0.308 µM and 1.57 µM, respectively.

Turning to `COC[C@@H]1CCCN1c1cncc(-c2ccc3c(c2)CCC(=O)N3C)c1` [Example 10, 6-[5-((S)-2-Methoxymethyl-pyrrolidin-1-yl)-pyridin-3-yl]-1-methyl-3,4-dihydro-1H-quinolin-2-one], the EC50 in assay [3] stood at 0.02 µM; in assay [4] it was 0.17 µM.

Turning to `CN1C(=O)CCc2cc(-c3cncc(CNC(=O)C4CC4)c3)ccc21` [Example 41, Cyclopropanecarboxylic acid [5-(1-methyl-2-oxo-1,2,3,4-tetrahydro-quinolin-6-yl)-pyridin-3-ylmethyl]-amide], the EC50 was 0.067 µM in assay [3] and 5.56 µM in assay [4].

Consider `CCC(=O)N1CC[C@H](Oc2cncc(-c3ccc4c(c3)CCC(=O)N4C)c2)C1` [Example 90], for which the EC50 in assay [3] turned out to be 0.011 µM; in assay [4], 1.5 µM.

Consider `CN1C(=O)CCc2cc(-c3cccnc3)ncc21` [Example 35, 1-Methyl-6-pyridin-3-yl-3,4-dihydro-1H-[1,7]naphthyridin-2-one], for which the EC50 in assay [3] was 0.325 µM; in assay [4], greater than 10 µM.

In the case of `Cc1nn(C)cc1C(=O)NCc1cncc(-c2ccc3c(c2)CCC(=O)N3C)c1` [Example 98], the values for the EC50 in assay [3] and in assay [4] were 0.011 µM and 0.36 µM, respectively.

With `CCC(=O)NC(C)c1cncc(-c2cc3c(cc2F)N(C)C(=O)CC3)c1` (racemic) [Example 213, (rac)-N-{1-[5-(7-Fluoro-1-methyl-2-oxo-1,2,3,4-tetrahydro-quinolin-6-yl)-pyridin-3-yl]-ethyl}-propionamide], the EC50 in assay [3] came out at 0.041 µM; in assay [4], 0.834 µM.

Consider `CCS(=O)(=O)N1CC[C@@H](Oc2cncc(-c3ccc4c(c3)CCC(=O)N4C)c2)C1` [Example 169, 6-[5-((R)-1-Ethanesulfonyl-pyrrolidin-3-yloxy)-pyridin-3-yl]-1-methyl-3,4-dihydro-1H-quinolin-2-one], for which the results for the EC50 in assay [3] and in assay [4] were 0.035 µM and 0.85 µM, respectively.

In the case of `CCC(=O)N(C)CCOc1cncc(-c2ccc3c(c2)CCC(=O)N3C)c1` [Example 197, N-Methyl-N-{2-[5-(1-methyl-2-oxo-1,2,3,4-tetrahydro-quinolin-6-yl)-pyridin-3-yloxy]-ethyl}-propionamide], the EC50 amounted to 0.004 µM in assay [3] and 0.062 µM in assay [4].

Turning to `COc1ccc(C(=O)NCc2cncc(-c3ccc4c(c3)CCC(=O)N4C)c2)nn1` [Example 100], the EC50 was 0.007 µM in assay [3] and 0.14 µM in assay [4].

Consider `CN1C(=O)CCc2cc(-c3cncc(C(C)(C)NC(=O)c4ncccc4Cl)c3)ccc21` [Example 138], for which the EC50 stood at 0.003 µM in assay [3] and 0.267 µM in assay [4].

For the compound `CCC(=O)NC(C)c1cncc(-c2cc3c(cc2F)N(C)C(=O)CC3)c1C` (single isomer, unassigned) [Example 264, N-{(R or S)-1-[5-(7-Fluoro-1-methyl-2-oxo-1,2,3,4-tetrahydro-quinolin-6-yl)-4-methyl-pyridin-3-yl]ethyl}-propionamide], the EC50 was 0.024 µM in assay [3] and 2.92 µM in assay [4].

With `Cc1cc(C(=O)NCc2cncc(-c3ccc4c(c3)CCC(=O)N4C)c2)c(Cl)nn1` [Example 105], the EC50 in assay [3] is 0.086 µM; in assay [4], 2.58 µM.

With `CN1C(=O)CCc2cc(-c3cncc(CNC(=O)c4cccnn4)c3)ccc21` [Example 85], the 50% effective concentration (EC50) was found to be 0.003 µM in assay [3] and 0.048 µM in assay [4].

As to `CCS(=O)(=O)NCc1cncc(-c2ccc3c(c2)CCC(=O)N3C)c1Cl` [Example 193, Ethanesulfonic acid [4-chloro-5-(1-methyl-2-oxo-1,2,3,4-tetrahydro-quinolin-6-yl)-pyridin-3-ylmethyl]-amide], the EC50 was determined as 0.022 µM in assay [3] and 1.01 µM in assay [4].

Consider `Cc1nnc(C(=O)NCc2cncc(-c3ccc4c(c3)CCC(=O)N4C)c2)o1` [Example 80], for which the EC50 was 0.043 µM in assay [3] and 0.493 µM in assay [4].

For `CN1C(=O)CCc2cc(-c3cncc(OCCNC(=O)c4cnn(C)c4)c3)ccc21` [Example 103], the EC50 in assay [3] turned out to be 0.015 µM; in assay [4], 2.93 µM.

A word on the EC50: it is the concentration giving half of the maximal effect. A high value points to a need for much substance.
